Experimental data published in patent US12251459B2, “Compositions, formulations, and methods for hair treatment” (Oddity Labs, LLC, priority 2022, dated 2025).

Tested on: human hair follicle dermal papilla cells (hFDPC)
Assay: Human follicle dermal papilla cells (hFDPC) proliferation assay
Type: cell-based
Conditions: hFDPCs supplemented with BIO, BMP-2 and FGFβ
Description: In Table 8, A represents less than 20% of increased proliferation of hFDPCs, B represents 20-40%, and C represents larger than 40% of increased proliferation of hFDPCs.

SMILES | Percent Increase Proliferation of hFDPCs (%)
C=CCc1cc(/C=C2\C(=O)NC(=O)N(c3ccc(C(C)C)cc3)C2=O)cc(OC)c1O [I-1] | A (A represents less than 20% of increased proliferation of hFDPCs)
C=CCc1cc(/C=C2\C(=O)NC(=O)N(c3cc(C)cc(C)c3)C2=O)cc(OCC)c1O [I-2, 2,4,6(1H,3H,5H)-Pyrimidinetrione, 1-(3,5-dimethylphenyl)-5-[[3-ethoxy-4-hydroxy-5-(2-propen-1-yl)phenyl]methylene]-] | B (B represents 20-40%)
C=CCc1cc(/C=C2\C(=O)NC(=O)N(c3cc(C)cc(C)c3)C2=O)cc(OC)c1O [I-3, 2,4,6(1H,3H,5H)-Pyrimidinetrione, 1-(3,5-dimethylphenyl)-5-[[4-hydroxy-3-methoxy-5-(2-propen-1-yl)phenyl]methylene]-] | A (A represents less than 20% of increased proliferation of hFDPCs)
C=CCc1cc(/C=C2\C(=O)NC(=O)N(c3ccc(C)c(C)c3)C2=O)cc(OC)c1O [I-4] | A (A represents less than 20% of increased proliferation of hFDPCs)
COc1cc(/C=C2\C(=O)NC(=O)N(Cc3ccccc3)C2=O)cc(OC)c1O [I-5, 2,4,6(1H,3H,5H)-Pyrimidinetrione, 5-[(4-hydroxy-3,5-dimethoxyphenyl)methylene]-1-(phenylmethyl)-] | B (B represents 20-40%)
C=CCN1C(=O)NC(=O)/C(=C\c2ccc(OC)cc2OC)C1=O [I-6, 2,4,6(1H,3H,5H)-Pyrimidinetrione, 5-[(2,4-dimethoxyphenyl)methylene]-1-(2-propen-1-yl)-] | A (A represents less than 20% of increased proliferation of hFDPCs)
C=CCOc1ccc(/C=C2/C(=O)NC(=O)N(CC=C)C2=O)cc1OC [I-7] | A (A represents less than 20% of increased proliferation of hFDPCs)
C=CCc1cc(C=C2C(=O)NC(=S)NC2=O)cc(OCC)c1O [I-8] | B (B represents 20-40%)
C=CCc1cc(C=C2C(=O)NC(=S)NC2=O)cc(OC)c1O [I-9, 4,6(1H,5H)-Pyrimidinedione, dihydro-5-[[4-hydroxy-3-methoxy-5-(2-propen-1-yl)phenyl]methylene]-2-thioxo-] | B (B represents 20-40%)
C=CCc1cc(/C=C2\C(=O)NC(=S)N(C)C2=O)cc(OC)c1OCC [I-10] | A (A represents less than 20% of increased proliferation of hFDPCs)
COc1ccc(/C=C2\C(=O)NC(=O)N(C)C2=O)c(OC)c1 [I-11, 2,4,6(1H,3H,5H)-Pyrimidinetrione, 5-[(2,4-dimethoxyphenyl)methylene]-1-methyl-, (5E)-] | A (A represents less than 20% of increased proliferation of hFDPCs)
CCCCN1CCc2cc(/C=C3\C(=O)NC(=O)N(C)C3=O)ccc21 [I-12, 2,4,6(1H,3H,5H)-Pyrimidinetrione, 5-[(1-butyl-2,3-dihydro-1H-indol-5-yl)methylene]-1-methyl-] | B (B represents 20-40%)
CN1C(=O)NC(=O)/C(=C/c2cnc(N(C)C)nc2)C1=O [I-13, 2,4,6(1H,3H,5H)-Pyrimidinetrione, 5-[[2-(dimethylamino)-5-pyrimidinyl]methylene]-1-methyl-] | A (A represents less than 20% of increased proliferation of hFDPCs)
CN1C(=O)NC(=O)/C(=C\c2cccc(OCC(=O)O)c2)C1=O [I-14] | A (A represents less than 20% of increased proliferation of hFDPCs)
COc1cc([N+](=O)[O-])cc(/C=C2\C(=O)NC(=O)N(C)C2=O)c1O [I-15, 2,4,6(1H,3H,5H)-Pyrimidinetrione, 5-[(2-hydroxy-3-methoxy-5-nitrophenyl)methylene]-1-methyl-] | B (B represents 20-40%)
C=CCc1cc(/C=C2\C(=O)NC(=O)N(C)C2=O)cc(OC)c1O [I-16] | A (A represents less than 20% of increased proliferation of hFDPCs)
Cc1ccc(-c2nnc(N3CCN(C(=O)C4CCCCC4)CC3)c3ccccc23)cc1 [II-1, Methanone, cyclohexyl[4-[4-(4-methylphenyl)-1-phthalazinyl]-1-piperazinyl]-] | A (A represents less than 20% of increased proliferation of hFDPCs)
Cc1ccc(C(=O)N2CCN(c3nnc(-c4ccc(C)cc4)c4ccccc34)CC2)cc1 [II-2, Methanone, (4-methylphenyl)[4-[4-(4-methylphenyl)-1-phthalazinyl]-1-piperazinyl]-] | B (B represents 20-40%)

SMILES | Percent Increase Proliferation of hFDPCs (%)
Cc1ccc(-c2nnc(N3CCN(S(C)(=O)=O)CC3)c3ccccc23)cc1 [II-3, Phthalazine, 1-(4-methylphenyl)-4-[4-(methylsulfonyl)-1-piperazinyl]-] | B (B represents 20-40%)
Cc1ccc(OCC(=O)N2CCN(c3nnc(-c4ccc(C)cc4)c4ccccc34)CC2)cc1 [II-5, Ethanone, 2-(4-methylphenoxy)-1-[4-[4-(4-methylphenyl)-1-phthalazinyl]-1-piperazinyl]-] | B (B represents 20-40%)
CCCC(=O)N1CCN(c2nnc(-c3ccc(C)cc3)c3ccccc23)CC1 [II-6, 1-Butanone, 1-[4-[4-(4-methylphenyl)-1-phthalazinyl]-1-piperazinyl]-] | B (B represents 20-40%)
COc1ccc(N2CCN(C(=O)c3cc(-c4cccs4)nc4ccccc34)CC2)cc1 [III-1, Methanone, [4-(4-methoxyphenyl)-1-piperazinyl][2-(2-thienyl)-4-quinolinyl]-] | A (A represents less than 20% of increased proliferation of hFDPCs)
Cc1cccc(Cn2cnc(NC(=O)c3cc(-c4cccnc4)nc4ccc(C)cc34)n2)c1 [III-2, 4-Quinolinecarboxamide, 6-methyl-N-[1-[(3-methylphenyl)methyl]-1H-1,2,4-triazol-3-yl]-2-(3-pyridinyl)-] | A (A represents less than 20% of increased proliferation of hFDPCs)
Cc1cc(C)n(Cc2ccc(NC(=O)c3cc(-c4ccc(C)c(C)c4)nc4ccccc34)cc2)n1 [III-3, 4-Quinolinecarboxamide, 2-(3,4-dimethylphenyl)-N-[4-[(3,5-dimethyl-1H-pyrazol-1-yl)methyl]phenyl]-] | B (B represents 20-40%)
CCOCCc1nnc(NC(=O)c2cc(-c3ccccc3)nc3ccccc23)s1 [III-4, 4-Quinolinecarboxamide, N-[5-(2-ethoxyethyl)-1,3,4-thiadiazol-2-yl]-2-phenyl-] | B (B represents 20-40%)
Cc1ccc(-c2cc(C(=O)NNC(=O)NC34CC5CC(CC(C5)C3)C4)c3ccccc3n2)c(C)c1 [III-5, 4-Quinolinecarboxylic acid, 2-(2,4-dimethylphenyl)-, 2-[(tricyclo[3.3.1.1^3,7]dec-1-ylamino)carbonyl]hydrazide] | A (A represents less than 20% of increased proliferation of hFDPCs)
CC(C)(C)Nc1nnc(SCc2cc(=O)oc3cc(O)ccc23)s1 [IV-1, 2H-1-Benzopyran-2-one, 4-[[[5-[(1,1-dimethylethyl)amino]-1,3,4-thiadiazol-2-yl]thio]methyl]-7-hydroxy-] | B (B represents 20-40%)
CSc1nnc(SCc2cc(=O)oc3cc(O)ccc23)s1 [IV-2, 2H-1-Benzopyran-2-one, 7-hydroxy-4-[[[5-(methylthio)-1,3,4-thiadiazol-2-yl]thio]methyl]-] | A (A represents less than 20% of increased proliferation of hFDPCs)
COc1ccccc1-n1c(SCc2cc(=O)oc3cc(O)ccc23)nc2ccccc2c1=O [IV-3, 4(3H)-Quinazolinone, 2-[[(7-hydroxy-2-oxo-2H-1-benzopyran-4-yl)methyl]thio]-3-(2-methoxyphenyl)-] | B (B represents 20-40%)
CCC(C)Cc1c(C)sc2[nH]c(SCc3cc(=O)oc4cc(O)ccc34)nc(=O)c12 (stereo not drawn) [IV-4, Thieno[2,3-d] pyrimidin-4(1H)-one, 2-[[(7-hydroxy-2-oxo-2H-1-benzopyran-4-yl)methyl]thio]-6-methyl-5-(2-methylbutyl)-] | A (A represents less than 20% of increased proliferation of hFDPCs)
Cc1ccc(Cn2ncc3c(N4CCCC4)ncnc32)cc1 [V-1, 1H-Pyrazolo[3,4-d] pyrimidine, 1-[(4-methylphenyl)methyl]-4-(1-pyrrolidinyl)-] | A (A represents less than 20% of increased proliferation of hFDPCs)
Cc1ccc(-n2ncc3c(N4CCCCC4)ncnc32)c(C)c1 [V-2, 1H-Pyrazolo[3,4-d] pyrimidine, 1-(2,4-dimethylphenyl)-4-(1-piperidinyl)-] | A (A represents less than 20% of increased proliferation of hFDPCs)
CC1CCCCN1c1nc(-c2ccccc2)nc2sc(-c3ccccc3)cc12 (stereo not drawn) [V-3, Thieno[2,3-d] pyrimidine, 4-(2-methyl-1-piperidinyl)-2,6-diphenyl-] | B (B represents 20-40%)
CCS(=O)(=O)N1CCN(c2ncnc3cc[nH]c23)CC1 [V-4, 5H-Pyrrolo[3,2-d] pyrimidine, 4-[4-(ethylsulfonyl)-1-piperazinyl]-] | A (A represents less than 20% of increased proliferation of hFDPCs)
O=C(C1CCN(S(=O)(=O)c2ccccc2)CC1)N1CCN(Cc2ccc3c(c2)OCO3)CC1 [VI-1, Methanone, [4-(1,3-benzodioxol-5-ylmethyl)-1-piperazinyl][1-(phenylsulfonyl)-4-piperidinyl]-] | A (A represents less than 20% of increased proliferation of hFDPCs)
N#Cc1ccc(S(=O)(=O)N2CCC(C(=O)N3CCN(Cc4ccc5c(c4)OCO5)CC3)CC2)cc1 [VI-2, Benzonitrile, 4-[[4-[[4-(1,3-benzodioxol-5-ylmethyl)-1-piperazinyl]carbonyl]-1-piperidinyl]sulfonyl]-] | B (B represents 20-40%)
